Data published in patent US20260049068A1, “Substituted Tetrazolyl Compounds Useful as T Cell Activators” (BRISTOL-MYERS SQUIBB COMPANY, priority 2022, published 2026).
pEC50, pIC50: −log10 of the molar value.

Experiments:
[1] = target: Near full length human DGKα(S9-S727) (Homo sapiens (Human), UniProt P23743); assay: DGKα (Near Full Length) ADP Glo assay; format: biochemical; conditions: extruded liposomes 5% or 10% DAG, 150 μM ATP, 5 nM enzyme; read-out: Near Full Length DGKalpha ADPGLO IC50
Description: The reactions were carried out at 150 μM ATP.
Luminescence was recorded using an EnVision microplate reader.

DGKα-YFP in Jurkat cells = DGKα-YFP in Jurkat cells (Homo sapiens (Human), UniProt P23743); assay: In vitro DGKα translocation assay; format: cell-based; conditions: 1 hour at 37° C., top concentration 10 μM, read-out: DGKalpha Translocation EC50
Description: Jurkat cells were transduced with lentiviral constructs overexpressing DGKα-YFP (N-terminal tagged), selected by puromycin, and were FACs sorted to establish stable lines expressing each isoform (Jurkat-DGKα-YFP=BXA-212700-01-001, Jurkat-DGKz-YFP=BXA-212701-01-001). Cell lines were maintained in growth media (RPMI supplemented with 10% FBS and pen/strep). All translocation assays were run in assay media (RPMI supplemented with 10% FBS and no antibiotics).
For translocation assays cells were plated onto Perkin Elmer CellCarrier-384 Ultra Microplates (Perkin Elmer cat #6057500) at a density of 30,000 cells/well, in a volume of 40 μL of assay media. Compounds were then transferred to the cells by an Echo Acoustic Liquid Handler (Echo 655). […] Treated cells were then incubated at 37° C. for 1 hour. Cells were then fixed with 4% formaldehyde (Thermo cat #28906) for 15 minutes, centrifuged briefly to increase cell retention (250 rpm for 5 minutes), and then washed 3× with 50 μL PBS. Cells were then stained with Hoechst, and washed 2× with 50 ul PBS. Next, 50 μL PBS was added to each well, plates were sealed, and plates were imaged on an Opera Phenix High Content screening system. Imaging was done with the 40× water objective. The YFP channel was set at 100% power for […], 10 regions/well were imaged and analyzed. Data analysis was done with Columbus Image Analysis software (Perk-in Elmer).

Full length human DGKα = Full length human DGKα (Homo sapiens (Human), UniProt P23743);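 also: ADP-Glo luminescence assay of ADP formed by 5 nM full-length DGKα on extruded PS/DAG/PC liposomes with 150 µM ATP, 1 h reaction, 11-point inhibitor titration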
Sequence of Full length human DGKα (P23743 other isoform, or with tags, fused parts or gaps): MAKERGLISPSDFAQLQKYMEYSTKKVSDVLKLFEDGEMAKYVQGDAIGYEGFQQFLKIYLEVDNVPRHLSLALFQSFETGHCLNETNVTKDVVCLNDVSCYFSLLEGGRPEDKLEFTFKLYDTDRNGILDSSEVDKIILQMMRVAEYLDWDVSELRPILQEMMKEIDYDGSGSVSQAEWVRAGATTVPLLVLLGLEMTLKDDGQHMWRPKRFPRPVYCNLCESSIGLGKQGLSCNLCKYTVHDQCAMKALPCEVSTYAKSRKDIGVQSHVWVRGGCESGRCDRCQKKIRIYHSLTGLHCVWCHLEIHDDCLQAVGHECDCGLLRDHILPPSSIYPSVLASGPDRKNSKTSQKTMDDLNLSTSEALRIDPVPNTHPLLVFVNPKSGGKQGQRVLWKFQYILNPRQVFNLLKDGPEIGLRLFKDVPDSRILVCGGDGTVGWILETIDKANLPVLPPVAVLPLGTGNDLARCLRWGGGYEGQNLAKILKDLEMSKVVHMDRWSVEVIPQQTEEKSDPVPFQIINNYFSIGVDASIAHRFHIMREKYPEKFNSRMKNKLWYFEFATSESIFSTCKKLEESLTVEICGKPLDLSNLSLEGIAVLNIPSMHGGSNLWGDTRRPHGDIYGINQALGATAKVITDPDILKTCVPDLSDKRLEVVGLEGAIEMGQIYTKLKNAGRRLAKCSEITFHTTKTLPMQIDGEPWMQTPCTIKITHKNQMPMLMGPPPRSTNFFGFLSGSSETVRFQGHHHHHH
Description: The DGKα (Full Length and Near Full Length) ADP Glo assays were performed using an extruded liposome prep at either 5% DAG or 10% DAG. The Enzymatic reactions were carried out in 50 mM MOPS pH 7.5, 100 mM NaCl, 10 mM MgCl2, 1 μM CaCl2, and 1 mM DTT (assay buffer). The lipid substrate concentrations were 1.9 mM PS, either 0.25 mM DAG (5% liposome prep) or 0.5 mM DAG (10% liposome prep), and 2.7 mM PC for the extruded liposome reactions. The reactions were carried out at 150 μM ATP. The enzyme concentrations for the DGKα(Near Full Length) and DGKα(FL) were 5 nM.
The compound inhibition studies were carried out as follows: 25 nL droplets of each test compound (11 point, 3-fold dilution series for each compound) solubilized in DMSO were transferred to wells of a white 1536 well plate (Corning 3725). A 5 mL enzyme/substrate (substrate being the 5× or 10× liposome preparation) solution at 2× final reaction concentrations was prepared by combining 5 ml of the extruded liposome preparation with 10 nM (2× final) DGKα(Near Full Length) or DGKα(Full Length) prepared as described below) and incubated at room temperature for 10 minutes. Next, 1 μL of the 2× enzyme/substrate solution was added to wells containing the test compound and reactions were initiated with the addition of 1 μL 300 uM ATP. Substrate only was added to DMSO only wells for background measurements. The reactions were allowed to proceed for 1 hr, after which 2 μL Glo Reagent (Promega V9101) was added and incubated for 40 minutes. Next, 4 μL Kinase Detection Reagent was added and incubated for 30 minutes. Luminescence was recorded using an EnVision microplate reader. […] The compounds were evaluated at 11 concentrations to determine IC50.

Sequence of Near full length human DGKα(S9-S727) (P23743 9-727): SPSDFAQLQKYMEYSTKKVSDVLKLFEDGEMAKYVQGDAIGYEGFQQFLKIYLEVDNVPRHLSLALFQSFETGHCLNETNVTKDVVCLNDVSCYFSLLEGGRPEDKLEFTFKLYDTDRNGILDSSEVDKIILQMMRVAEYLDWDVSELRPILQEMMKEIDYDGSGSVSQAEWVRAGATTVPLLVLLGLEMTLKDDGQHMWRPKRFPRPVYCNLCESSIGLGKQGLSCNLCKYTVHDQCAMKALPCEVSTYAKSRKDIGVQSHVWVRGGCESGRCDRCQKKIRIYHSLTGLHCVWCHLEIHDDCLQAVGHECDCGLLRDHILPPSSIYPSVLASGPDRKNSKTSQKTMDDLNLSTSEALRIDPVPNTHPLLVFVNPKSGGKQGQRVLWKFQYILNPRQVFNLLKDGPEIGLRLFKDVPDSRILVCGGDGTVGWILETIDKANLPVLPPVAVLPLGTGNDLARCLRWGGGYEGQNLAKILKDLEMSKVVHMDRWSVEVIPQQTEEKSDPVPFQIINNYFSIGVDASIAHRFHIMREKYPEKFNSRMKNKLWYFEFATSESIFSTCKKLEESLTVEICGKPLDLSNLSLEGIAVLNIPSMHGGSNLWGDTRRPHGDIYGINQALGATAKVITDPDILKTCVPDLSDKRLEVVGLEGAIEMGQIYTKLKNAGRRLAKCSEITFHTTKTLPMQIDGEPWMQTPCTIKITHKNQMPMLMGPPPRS
Sequence of DGKα-YFP in Jurkat cells (P23743 whole entry, canonical isoform): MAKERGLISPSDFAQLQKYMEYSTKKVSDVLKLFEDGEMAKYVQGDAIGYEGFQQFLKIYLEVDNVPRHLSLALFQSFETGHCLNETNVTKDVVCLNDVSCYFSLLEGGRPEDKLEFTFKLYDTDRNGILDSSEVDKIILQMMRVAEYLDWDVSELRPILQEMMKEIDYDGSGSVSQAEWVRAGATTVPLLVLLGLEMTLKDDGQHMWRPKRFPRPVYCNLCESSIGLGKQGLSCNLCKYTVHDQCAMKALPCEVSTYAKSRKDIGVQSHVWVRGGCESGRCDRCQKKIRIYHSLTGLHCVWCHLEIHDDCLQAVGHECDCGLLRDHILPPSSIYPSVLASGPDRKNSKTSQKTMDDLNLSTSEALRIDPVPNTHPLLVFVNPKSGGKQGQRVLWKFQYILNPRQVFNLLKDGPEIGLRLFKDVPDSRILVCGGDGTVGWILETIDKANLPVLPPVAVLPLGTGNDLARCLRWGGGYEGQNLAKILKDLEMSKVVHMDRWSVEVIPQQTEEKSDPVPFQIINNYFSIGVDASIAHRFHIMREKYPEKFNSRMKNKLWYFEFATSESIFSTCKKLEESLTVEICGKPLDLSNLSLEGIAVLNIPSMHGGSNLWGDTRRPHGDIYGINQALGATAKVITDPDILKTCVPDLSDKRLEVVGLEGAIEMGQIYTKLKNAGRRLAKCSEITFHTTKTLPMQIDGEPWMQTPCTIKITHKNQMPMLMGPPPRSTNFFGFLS

Compound	pIC50 [1]	pEC50 (DGKα-YFP in Jurkat cells)	pIC50 (Full length human DGKα)
N#Cc1nc(-n2nnnc2CN(CC2CC2)C2CCCCC2)ccc1Cl [Example 15, 3-chloro-6-(5-((cyclohexyl (cyclopropylmethyl)amino)methyl)-1H-tetrazol-1-yl) picolinonitrile]	5.37	5.68	5.51
CN(Cc1nnnn1-c1cccc(C(F)(F)F)c1)C1CCCCC1 [Example 18, N-methyl-N-((1-(3-(trifluoromethyl)phenyl)-1H-tetrazol-5-yl)methyl) cyclohexanamine]	4.96	< 5.30	5.01
CN(Cc1nnnn1-c1cccc(F)c1)C1CCCCC1 [Example 19, N-((1-(3-fluorophenyl)-1H-tetrazol-5-yl)methyl)-N-methylcyclohexanamine]	5.24	< 5.30	5.28
CN(Cc1nnnn1-c1ccc(F)c(C#N)c1)C1CCCCC1 [Example 21, 5-(5-((cyclohexyl (methyl)amino)methyl)-1H-tetrazol-1-yl)-2-fluorobenzonitrile]	5.51	5.92	5.43
CN(Cc1nnnn1-c1ccc(C(F)(F)F)nc1)C1CCCCC1 [Example 23, N-methyl-N-((1-(6-(trifluormethyl)pyridin-3-yl)-1H-tetrazol-5-yl)methyl) cyclohexanamine]	5.44	< 5.30	5.19

The next molecules have a higher pIC50 [1] than those just listed; values first:

pIC50 [1]	pEC50 (DGKα-YFP in Jurkat cells)	pIC50 (Full length human DGKα)	Compound
7.10	6.92	7.05	CCN(Cc1nnnn1-c1ccc(Cl)c(C#N)c1)C1CCCCC1 [Example 13, 2-chloro-5-(5-((cyclohexyl(ethyl)amino)methyl)-1H-tetrazol-1-yl)benzonitrile]
5.96	5.74	5.70	CN(Cc1nnnn1-c1ccc(Cl)c(C#N)n1)C1CCCCC1 [Example 14, 3-chloro-6-(5-((cyclohexyl(methyl)amino)methyl)-1H-tetrazol-1-yl)picolinonitrile]
5.59	< 5.00	5.57	CCN(Cc1nnnn1-c1ccc(Cl)c(C#N)n1)C1CCCCC1 [Example 16, 3-chloro-6-(5-((cyclohexyl(ethyl)amino)methyl)-1H-tetrazol-1-yl)picolinonitrile]
6.07	5.77	6.05	COc1ccc(-n2nnnc2CN(C)C2CCCCC2)cc1C#N [Example 24, 5-(5-((cyclohexyl(methyl)amino)methyl)-1H-tetrazol-1-yl)-2-methoxybenzonitrile]
6.39	6.46	6.85	Cc1ccc(-n2nnnc2CN(C)C2CCCCC2)cc1C#N [Example 25, 5-(5-((cyclohexyl(methyl)amino)methyl)-1H-tetrazol-1-yl)-2-methylbenzonitrile]
5.77	6.24	5.46	CN(Cc1nnnn1-c1ccc(Cl)cc1)C1CCCCC1 [Example 29, N-((1-(4-chlorophenyl)-1H-tetrazol-5-yl)methyl)-N-methylcyclohexanamine]
